Results as given in paper PMC6240685, “Strong Inhibitory Effect, Low Cytotoxicity and High Plasma Stability of Steroidal Inhibitors of N-Methyl-D-Aspartate Receptors With C-3 Amide Structural Motif” (Frontiers in Pharmacology, 2018).

Tested on: AMPARs
Test: Inhibition of native AMPAR responses in cultured hippocampal neurons
Assay type: cell-based, rat
Conditions: cyclothiazide 10 μM
Procedure: FIGURE 8 The effect of compound 6 on peak and steady-state responses of native NMDARs, AMPARs, and GABARs. (A) Examples of traces obtained from cultured hippocampal neurons. […] Error bars represent SD from five independent measurements. Asterisks mark significance at the level of P < 0.05 (Paired t-test).
FIGURE 9 The effect of compound 6 on native NMDARs, AMPARs, and GABARs. (A) Example of traces obtained from cultured hippocampal neurons. Compound 6 (10 or 30 μM) was co-applied with NMDA (100 μM), AMPA (100 μM), and GABA (5 μM) (duration of agonist and steroid application is indicated by filled and open bars, respectively). […]
Electrophysiological experiments were performed on HEK293 cells transfected with plasmids encoding rat GluN1-1a/GluN2A-D and GFP genes as described previously, ([Petrovic et al., 2005]; [Cais et al., 2008]; [Korinek et al., 2010]) or on primary hippocampal neurons prepared from P0–P1 rats, plated on collagen/poly-D-lysine-coated glass coverslips at a density of ∼50,000 cells/cm^2, and grown in Neurobasal A medium with B27 Supplement (Gibco). […] Agonist-induced responses were low-pass filtered at 2 kHz, digitally sampled at 5 kHz, and analyzed with pClamp software version 10.5 (Molecular Devices). […] Action potentials were recorded in the current-clamp mode from primary hippocampal mass-culture neurons at 14–15 days in vitro. […]

C[C@@]12CCC[C@H]1[C@@H]1CC[C@@H]3C[C@H](NC(=O)[C@@H](N)CC(=O)O)CC[C@]3(C)[C@H]1CC2 [Compound 6, (S)-3-amino-4-(((3R,5R,8S,9S,10S,13S,14S)-10,13-dimethylhexadecahydro-1H-cyclopenta[a]phenanthren-3-yl)amino)-4-oxobutanoic acid]
effect on amplitude of AMPA-induced responses (AMPA 100 μM): only little affected | potency estimated from few doses (estimated from single dose (30 μM), Hill coefficient fixed at 1.2, 100 μM AMPA, read-out: IC50 at AMPAR responses (estimate)): 276 ± 179 µM
